Values quoted from earlier work as cited in article PMC11865562 (Scientific Reports, 2025).

System: P-gp

P-gp substrate (reported): P-gp substrate
Structure (SMILES): CNC(=O)c1ccc(-c2cnc3ncc(Cc4ccc5ncccc5c4)n3n2)cc1F [Capmatinib, capmatinib]
